The source of these data is ChEMBL document CHEMBL1201862, “PubChem BioAssay data set” (2004).

Test systems include PC-3; HOP-92; HOP-62; UACC-62; MDA-MB-231; UO-31; SF-295; OVCAR-3; KM12; HT-29; NCI-H460; SNB-19; HCC 2998; TK-10; SF-539; SK-MEL-5; A498; UACC-257; HL-60; NCI/ADR-RES.
Holding throughout (test): NCI-60 cell line screen, 48 h

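Dose response: 5 concentrations. Exposure: 48 h. Format: 96-well plates. Endpoint: linear interpolation; highest concentration if not reached. The concentration for 50% growth inhibition is given as GI50.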 Calls of active or inactive are those of the source. Rule as the data show it: active = GI50 up to about 1.1 µM and inactive = higher.

For `CC(C)C1=C(O)C(=O)C2=C(C1=O)C(O)CC1C(C)(C)CCCC21C` (stereo unspecified), the GI50 in the assay on PC-3 is 10.2 µM (inactive); with HOP-92, 3.61 µM (inactive); in the assay on HOP-62, 7.35 µM (inactive); in the assay on UACC-62 it was 2.67 µM (inactive); with MDA-MB-231, 2.84 µM (inactive); in the assay on UO-31, 5.09 µM (inactive). The GI50 is 21.7 µM (inactive) in the assay on SF-295; 11.4 µM (inactive) in the assay with OVCAR-3; 5.45 µM (inactive) in the assay with KM12; 22.1 µM (inactive) in the assay with HT-29; 2.88 µM (inactive) with NCI-H460; 5.38 µM (inactive) in the assay on SNB-19. In addition, the GI50 with HCC 2998 was 3.58 µM (inactive); in the assay with TK-10 it was 14.5 µM (inactive); with SF-539 it was 16.9 µM (inactive); in the assay on SK-MEL-5, 2.43 µM (inactive); in the assay with A498 it was 14.3 µM (inactive); in the assay on UACC-257 it was 11.3 µM (inactive). The GI50 in the assay on HL-60 was 14.9 µM (inactive).
In the case of `CCC(C)C1=C(OC(C)=O)[N+]2([O-])Oc3ccc(-c4c(OC(C)=O)c(OC(C)=O)c(-c5ccc(OC(C)=O)cc5)c(OC(C)=O)c4OC(C)=O)cc3OC2(C(C)CC)C(=O)N1OC(C)=O` (stereo unspecified), the GI50 in the assay with PC-3 was 22.5 µM (inactive); in the assay with UACC-62 it was 9.06 µM (inactive); in the assay with MDA-MB-231 it was 40.3 µM (inactive); with UO-31, 30.6 µM (inactive); in the assay with SF-295, 8.69 µM (inactive); in the assay on OVCAR-3, 11.4 µM (inactive). Also, the GI50 with KM12 was 19.3 µM (inactive); with HT-29 it was 19.9 µM (inactive); in the assay with NCI-H460, 18.9 µM (inactive); with SNB-19, 30.1 µM (inactive); in the assay with TK-10, 37.7 µM (inactive); with NCI/ADR-RES, > 50 µM (inactive). The GI50 with SF-539 is 42.3 µM (inactive); in the assay on SK-MEL-5, 11 µM (inactive); with A498, > 50 µM (inactive); in the assay with UACC-257, 30.5 µM (inactive); in the assay on HL-60 it was 7.71 µM (inactive).
Turning to `O=C1CSC2=NC3=C(CSC/C3=C\c3ccc(Cl)cc3)C(c3ccc(Cl)cc3)N12` (stereo unspecified), the GI50 is 5.22 µM (inactive) in the assay on PC-3; 10.3 µM (inactive) with HOP-92; 24.9 µM (inactive) in the assay with UACC-62; 21.8 µM (inactive) with MDA-MB-231; 12.9 µM (inactive) with UO-31; 12.1 µM (inactive) in the assay on SF-295. In addition, the GI50 was 15.5 µM (inactive) with OVCAR-3; 8.04 µM (inactive) in the assay on KM12; 20.2 µM (inactive) with HT-29; 28.5 µM (inactive) with NCI-H460; 37.2 µM (inactive) in the assay on SNB-19; 25.6 µM (inactive) in the assay with HCC 2998. Also, the GI50 was 32 µM (inactive) in the assay on TK-10; 24.4 µM (inactive) in the assay on NCI/ADR-RES; 14.4 µM (inactive) in the assay on SK-MEL-5; 28.2 µM (inactive) in the assay on UACC-257; 22.2 µM (inactive) in the assay with HL-60.
Turning to `CCOC(=O)C(NCc1cccc(C(F)(F)F)c1)(NC(=O)CC)C(F)(F)F` (stereo unspecified), the GI50 in the assay on PC-3 is 95.5 µM (inactive); with HOP-92, 71 µM (inactive); in the assay on HOP-62, > 100 µM (inactive); with UACC-62, 96.6 µM (inactive); with MDA-MB-231, 31.8 µM (inactive); in the assay on UO-31, 51.8 µM (inactive). Further, the GI50 in the assay with SF-295, in the assay on OVCAR-3, in the assay with KM12, in the assay with HT-29, in the assay with SNB-19 and in the assay on HCC 2998 was > 100 µM (inactive) in each case. Also, the GI50 in the assay on TK-10 was > 100 µM (inactive); with NCI/ADR-RES, > 100 µM (inactive); with SF-539 it was > 100 µM (inactive); in the assay on SK-MEL-5, > 100 µM (inactive); with UACC-257 it was > 100 µM (inactive); in the assay with HL-60, 58.5 µM (inactive).
For the compound `Cc1ccc(S(=O)(=O)N(CCN2C(=O)c3ccccc3C2=O)c2cc3c4c(c2)Oc2cc(N(CCN5C(=O)c6ccccc6C5=O)S(=O)(=O)c5ccc(C)cc5)cc5c2C4(C)c2c(cc(N(CCN4C(=O)c6ccccc6C4=O)S(=O)(=O)c4ccc(C)cc4)cc2O5)O3)cc1`, the GI50 with PC-3 was > 100 µM (inactive); in the assay on HOP-62, > 100 µM (inactive); with UACC-62, > 100 µM (inactive); in the assay with MDA-MB-231, 4.89 µM (inactive); in the assay with UO-31, > 100 µM (inactive); in the assay with SF-295 it was > 100 µM (inactive). In addition, the GI50 in the assay with OVCAR-3, with KM12, in the assay with HT-29, in the assay with NCI-H460, in the assay on SNB-19 and in the assay with TK-10 was > 100 µM (inactive) each time. The GI50 in the assay on NCI/ADR-RES, in the assay with SF-539, in the assay on SK-MEL-5, in the assay with UACC-257 and in the assay on HL-60 was > 100 µM (inactive) each time.
As to `COC(=O)c1c(C)c2c(c(C)c1C(=O)OC)-c1c(C)ccc3ccc(C)c-2c13`, the GI50 in the assay with PC-3 is 28.7 µM (inactive); with HOP-62, > 100 µM (inactive); in the assay with UACC-62, 47.5 µM (inactive); with MDA-MB-231 it was 3.94 µM (inactive); with UO-31, 47.8 µM (inactive); in the assay with SF-295 it was 11.4 µM (inactive). The GI50 was > 85.9 µM (inactive) in the assay on OVCAR-3; 9.38 µM (inactive) in the assay on KM12; 7.82 µM (inactive) with HT-29; 18.6 µM (inactive) in the assay on NCI-H460; > 87.5 µM (inactive) in the assay on SNB-19; > 65.8 µM (inactive) with TK-10. Further, the GI50 with NCI/ADR-RES is 26.7 µM (inactive); in the assay with SF-539 it was 51.5 µM (inactive); in the assay on SK-MEL-5, 13.1 µM (inactive); in the assay on A498, > 72.6 µM (inactive); in the assay on UACC-257, > 54.5 µM (inactive); with HL-60 it was 5.08 µM (inactive).
`FC(F)=C(c1ccc(-c2ccc(Cl)cc2)cc1)C(F)(F)F`: the GI50 is 17.3 µM (inactive) with PC-3; 15.1 µM (inactive) in the assay with HOP-92; 19 µM (inactive) in the assay with UACC-62; 17.7 µM (inactive) in the assay on MDA-MB-231; 16.4 µM (inactive) in the assay with UO-31; 22.5 µM (inactive) with SF-295. The GI50 in the assay on KM12 is 19.3 µM (inactive); in the assay on HT-29, 25.6 µM (inactive); with NCI-H460 it was 17.7 µM (inactive); with SNB-19, 19.3 µM (inactive); in the assay with TK-10, 15.8 µM (inactive); with NCI/ADR-RES it was 26.1 µM (inactive). The GI50 with SF-539 was 20.7 µM (inactive); in the assay on SK-MEL-5, 18.2 µM (inactive); in the assay on A498, 16.8 µM (inactive); in the assay on UACC-257, 20 µM (inactive); with HL-60 it was 45.3 µM (inactive).
On to `O=C(c1ccc2ccccc2c1)C1(I)S(=O)(=O)OCCOS1(=O)=O`, for which the GI50 with PC-3 is > 100 µM (inactive); in the assay on HOP-62, > 100 µM (inactive); in the assay on MDA-MB-231, > 100 µM (inactive); in the assay on UO-31, > 100 µM (inactive); in the assay on SF-295, 0.0102 µM (active); in the assay on OVCAR-3 it was > 100 µM (inactive). Moreover, the GI50 in the assay with KM12, in the assay on HT-29, in the assay with NCI-H460, with SNB-19, in the assay with HCC 2998 and in the assay on TK-10 was > 100 µM (inactive) each time. Also, the GI50 in the assay on NCI/ADR-RES, with SK-MEL-5 and with HL-60 was > 100 µM (inactive) each time.
Turning to `O=C1c2ccccc2-c2ccc(/N=N/c3c(O)ccc4ccccc34)cc21`, the GI50 in the assay with PC-3, in the assay on HOP-92, in the assay on HOP-62, in the assay with UACC-62, with MDA-MB-231 and with UO-31 was > 100 µM (inactive) throughout. Moreover, the GI50 in the assay on SF-295, with OVCAR-3, in the assay on KM12, in the assay on HT-29, with SNB-19 and with TK-10 was > 100 µM (inactive) throughout. Besides, the GI50 in the assay with NCI/ADR-RES, with SK-MEL-5, in the assay on A498 and in the assay with UACC-257 was > 100 µM (inactive) in each case.
On to `Nc1cc2ncnn2c(SCC(=O)N/N=C/C(Br)=C\c2ccccc2)n1`, for which the GI50 in the assay with PC-3 is 12.6 µM (inactive); in the assay with HOP-62, 33.6 µM (inactive); in the assay with UACC-62, 7.23 µM (inactive); in the assay on MDA-MB-231, 15.5 µM (inactive); with UO-31 it was 15.5 µM (inactive); in the assay on SF-295, 21.8 µM (inactive). Further, the GI50 is 18.5 µM (inactive) in the assay with OVCAR-3; 17.9 µM (inactive) with KM12; 14.8 µM (inactive) with HT-29; 17.3 µM (inactive) with NCI-H460; 31 µM (inactive) in the assay with SNB-19; 19.9 µM (inactive) with HCC 2998. Besides, the GI50 with TK-10 is 31.8 µM (inactive); in the assay with NCI/ADR-RES, 25.5 µM (inactive); in the assay on SF-539, 16.7 µM (inactive); with SK-MEL-5, 13.4 µM (inactive); with UACC-257 it was 9.62 µM (inactive); in the assay on HL-60, 11.9 µM (inactive).
On to `Cc1c(C2CCSc3ccccc3N2)sc2ccccc12` (stereo unspecified), for which the GI50 is > 100 µM (inactive) in the assay on PC-3; > 100 µM (inactive) with HOP-92; > 100 µM (inactive) with HOP-62; > 100 µM (inactive) in the assay on UACC-62; > 100 µM (inactive) in the assay on MDA-MB-231; 52.5 µM (inactive) in the assay with UO-31. In addition, the GI50 was > 100 µM (inactive) in the assay on SF-295; > 100 µM (inactive) with OVCAR-3; 65.6 µM (inactive) in the assay on KM12; 54.8 µM (inactive) in the assay with HT-29; 90.2 µM (inactive) in the assay on NCI-H460; > 100 µM (inactive) with SNB-19. Also, the GI50 in the assay with HCC 2998 is 80.4 µM (inactive); in the assay with TK-10, > 100 µM (inactive); in the assay on NCI/ADR-RES, 46 µM (inactive); in the assay on SF-539, > 100 µM (inactive); in the assay on SK-MEL-5 it was > 100 µM (inactive); with UACC-257 it was 99.8 µM (inactive). Further, the GI50 with HL-60 is 55.5 µM (inactive).
